Measured values published in paper PMC9632963, “Preclinical characterization and phase I clinical trial of CT053PTSA targets MET, AXL, and VEGFR2 in patients with advanced solid tumors” (Frontiers in Immunology, 2022).

Test system: patients with advanced solid tumors
Assay: Phase I trial: safety, tolerability, DLT, MTD (CTCAE v4.0)
Type: in vivo
Text: Eligible patients had at least one measurable lesion per RECIST v 1.1, Eastern Cooperative Oncology Group (ECOG) performance status of 0 or 1, and adequate hematological, renal, cardiac and hepatic functions. The primary objectives were to assess safety and tolerability as well as to determine the MTD, DLT, and dose recommended for further study. The secondary objectives were to assess the PK and preliminary efficacy of CT053PTSA.
An initial accelerated titration design was used in the 15 and 30 mg QD cohorts, and the “3+3” schema was used starting in the 60 mg QD cohort. […] The study protocol was approved by an institutional review board at Sun Yat-sen University Cancer Center. Written informed consent was obtained from all the patients before enrollment.
Descriptive statistics of safety are presented per CTCAE v4.0. Subjects who received at least one dose of CT053PTSA were considered eligible to be evaluated and included in safety analyses. […] According to the RECIST 1.1 criteria, imaging examinations were performed at each specified time point in the protocol. The antitumor activity was measured by RECIST1.1.

In the case of `Cc1c(C(=O)Nc2ccc(Oc3ccnc4cc(OCC(C)(C)O)ccc34)c(F)c2)c(=O)n(-c2ccccc2)n1C` [CT053PTSA], the “Blood sodium decreased, ≥ G3” value (100mg (n = 7)) is reported as 0 n (%), the “Blood uric acid increased, All” value (100mg (n = 7)) is reported as 0 n (%) and the “Blood uric acid increased, ≥ G3” value (100mg (n = 7)) is reported as 0 n (%). The “Decreased appetite, All” value (100mg (n = 7)) was 2 (28.6) n (%), the “Decreased appetite, ≥ G3” value (100mg (n = 7)) was 0 n (%) and the “Diarrhea, All” value (100mg (n = 7)) was 1 (14.3) n (%). The “Diarrhea, ≥ G3” value (100mg (n = 7)) was 0 n (%), the “Dizziness, All” value (100mg (n = 7)) was 1 (14.3) n (%) and the “Dizziness, ≥ G3” value (100mg (n = 7)) was 0 n (%). For the same compound, the “Dry mouth, All” value (100mg (n = 7)) was 1 (14.3) n (%), the “Dry mouth, ≥ G3” value (100mg (n = 7)) was 0 n (%) and the “Electrocardiogram QT prolonged, All” value (100mg (n = 7)) was 1 (14.3) n (%). For the same compound, the “Electrocardiogram QT prolonged, ≥ G3” value (100mg (n = 7)) was 0 n (%), the “Electrolyte imbalance, All” value (100mg (n = 7)) was 0 n (%) and the “Electrolyte imbalance, ≥ G3” value (100mg (n = 7)) was 0 n (%). The “Hemoglobin decreased, All” value (100mg (n = 7)) was 0 n (%), the “Hemoglobin decreased, ≥ G3” value (100mg (n = 7)) was 0 n (%) and the “Hypertension, All” value (100mg (n = 7)) was 2 (28.6) n (%). The “Hypertension, ≥ G3” value (100mg (n = 7)) was 0 n (%), the “Hyponatremia, All” value (100mg (n = 7)) was 1 (14.3) n (%) and the “Hyponatremia, ≥ G3” value (100mg (n = 7)) was 0 n (%). For the same compound, the “Hypoparathyroidism, All” value (100mg (n = 7)) was 0 n (%), the “Hypoparathyroidism, ≥ G3” value (100mg (n = 7)) was 0 n (%) and the “Mouth ulceration, All” value (100mg (n = 7)) was 0 n (%). For the same compound, the “Mouth ulceration, ≥ G3” value (100mg (n = 7)) was 0 n (%), the “Nausea, All” value (100mg (n = 7)) was 1 (14.3) n (%) and the “Nausea, ≥ G3” value (100mg (n = 7)) was 0 n (%). For the same compound, the “Oropharyngeal pain, All” value (100mg (n = 7)) was 1 (14.3) n (%), the “Oropharyngeal pain, ≥ G3” value (100mg (n = 7)) was 0 n (%) and the “Pain, All” value (100mg (n = 7)) was 1 (14.3) n (%). The “Pain, ≥ G3” value (100mg (n = 7)) was 0 n (%), the “Palmar-plantar erythrodysaesthesia syndrome, All” value (100mg (n = 7)) was 1 (14.3) n (%) and the “Palmar-plantar erythrodysaesthesia syndrome, ≥ G3” value (100mg (n = 7)) was 0 n (%). For the same compound, the “Platelet count decreased, All” value (100mg (n = 7)) was 4 (57.1) n (%), the “Platelet count decreased, ≥ G3” value (100mg (n = 7)) was 1 (14.3) n (%) and the “Proteinuria, All” value (100mg (n = 7)) was 1 (14.3) n (%). For the same compound, the “Proteinuria, ≥ G3” value (100mg (n = 7)) was 0 n (%), the “Pyrexia, All” value (100mg (n = 7)) was 0 n (%) and the “Pyrexia, ≥ G3” value (100mg (n = 7)) was 0 n (%). The “Sinus bradycardia, All” value (100mg (n = 7)) was 0 n (%), the “Sinus bradycardia, ≥ G3” value (100mg (n = 7)) was 0 n (%) and the “Stomatitis, All” value (100mg (n = 7)) was 1 (14.3) n (%). For the same compound, the “Stomatitis, ≥ G3” value (100mg (n = 7)) was 0 n (%), the “Vomiting, All” value (100mg (n = 7)) was 0 n (%) and the “Vomiting, ≥ G3” value (100mg (n = 7)) was 0 n (%). For the same compound, the “leukopenia, All” value (100mg (n = 7)) was 4 (57.1) n (%), the “leukopenia, ≥ G3” value (100mg (n = 7)) was 0 n (%) and the “neutropenia, All” value (100mg (n = 7)) was 4 (57.1) n (%). For the same compound, the “neutropenia, ≥ G3” value (100mg (n = 7)) was 0 n (%), the “transaminase elevation, All” value (100mg (n = 7)) was 6 (85.7) n (%) and the “transaminase elevation, ≥ G3” value (100mg (n = 7)) was 1 (14.3) n (%). The “patients with DLT / patients eligible for DLT assessment” value (100 mg QD) was 1/6 and one out of six, the “Anaemia, All” value (150mg (n = 5)) was 0 n (%) and the “Anaemia, ≥ G3” value (150mg (n = 5)) was 0 n (%). The “Blood chloride decreased, All” value (150mg (n = 5)) was 0 n (%), the “Blood chloride decreased, ≥ G3” value (150mg (n = 5)) was 0 n (%) and the “Blood creatinine increased, All” value (150mg (n = 5)) was 1 (20) n (%). For the same compound, the “Blood creatinine increased, ≥ G3” value (150mg (n = 5)) was 0 n (%), the “Blood potassium decreased, All” value (150mg (n = 5)) was 1 (20) n (%) and the “Blood potassium decreased, ≥ G3” value (150mg (n = 5)) was 0 n (%). For the same compound, the “Blood sodium decreased, All” value (150mg (n = 5)) was 1 (20) n (%), the “Blood sodium decreased, ≥ G3” value (150mg (n = 5)) was 1 (20) n (%) and the “Blood uric acid increased, All” value (150mg (n = 5)) was 1 (20) n (%). The “Blood uric acid increased, ≥ G3” value (150mg (n = 5)) was 0 n (%), the “Decreased appetite, All” value (150mg (n = 5)) was 3 (60) n (%) and the “Decreased appetite, ≥ G3” value (150mg (n = 5)) was 1 (20) n (%). The “Diarrhea, All” value (150mg (n = 5)) was 1 (20) n (%), the “Diarrhea, ≥ G3” value (150mg (n = 5)) was 0 n (%) and the “Dizziness, All” value (150mg (n = 5)) was 0 n (%). For the same compound, the “Dizziness, ≥ G3” value (150mg (n = 5)) was 0 n (%), the “Dry mouth, All” value (150mg (n = 5)) was 0 n (%) and the “Dry mouth, ≥ G3” value (150mg (n = 5)) was 0 n (%). For the same compound, the “Electrocardiogram QT prolonged, All” value (150mg (n = 5)) was 1 (20) n (%), the “Electrocardiogram QT prolonged, ≥ G3” value (150mg (n = 5)) was 0 n (%) and the “Electrolyte imbalance, All” value (150mg (n = 5)) was 1 (20) n (%). The “Electrolyte imbalance, ≥ G3” value (150mg (n = 5)) was 0 n (%), the “Hemoglobin decreased, All” value (150mg (n = 5)) was 1 (20) n (%) and the “Hemoglobin decreased, ≥ G3” value (150mg (n = 5)) was 0 n (%). For the same compound, the “Hypertension, All” value (150mg (n = 5)) was 2 (40) n (%), the “Hypertension, ≥ G3” value (150mg (n = 5)) was 1 (20) n (%) and the “Hyponatremia, All” value (150mg (n = 5)) was 0 n (%). For the same compound, the “Hyponatremia, ≥ G3” value (150mg (n = 5)) was 0 n (%), the “Hypoparathyroidism, All” value (150mg (n = 5)) was 1 (20) n (%) and the “Hypoparathyroidism, ≥ G3” value (150mg (n = 5)) was 0 n (%). For the same compound, the “Mouth ulceration, All” value (150mg (n = 5)) was 1 (20) n (%), the “Mouth ulceration, ≥ G3” value (150mg (n = 5)) was 0 n (%) and the “Nausea, All” value (150mg (n = 5)) was 1 (20) n (%). The “Nausea, ≥ G3” value (150mg (n = 5)) was 0 n (%), the “Oropharyngeal pain, All” value (150mg (n = 5)) was 0 n (%) and the “Oropharyngeal pain, ≥ G3” value (150mg (n = 5)) was 0 n (%). The “Pain, All” value (150mg (n = 5)) was 0 n (%), the “Pain, ≥ G3” value (150mg (n = 5)) was 0 n (%) and the “Palmar-plantar erythrodysaesthesia syndrome, All” value (150mg (n = 5)) was 0 n (%). The “Palmar-plantar erythrodysaesthesia syndrome, ≥ G3” value (150mg (n = 5)) was 0 n (%) and the “Platelet count decreased, All” value (150mg (n = 5)) was 1 (20) n (%).
